The text below walks through data of patent publication US12649744B2, “N-(pyridin-2-yl)-6,7,8,9-tetrahydro-5h-5,8-epiminocyclohepta[c]pyridine-10-carboxamide derivatives and similar compounds as GPR65 modulators for the treatment of cancer” (PATHIOS THERAPEUTICS LIMITED, priority 2020, dated 2026).

In this experiment the target is human recombinant GPR65 (Homo sapiens, UniProt Q8IYL9). Briefly: Human GPR65 cAMP HTRF antagonist assay. The experiment is classed as cell-based. The conditions noted are these: 1321N1-hrGPR65 cells, assay pH of 7.2, cAMP HTRF; read-out: hGPR65 IC50. An excerpt: The “Human GPR65 cyclic adenosine monophosphate (cAMP) Homogeneous Time Resolved Fluorescence (HTRF) antagonist assay”, or simply “cAMP assay”, as described below, can be used to measure the potency of GPR65 modulators, which is expressed as the concentration of compound required to reduce the increase in cAMP concentration upon GPR65 activation by 50% (i.e. an IC50).
Sequence of human recombinant GPR65 (Q8IYL9 whole entry): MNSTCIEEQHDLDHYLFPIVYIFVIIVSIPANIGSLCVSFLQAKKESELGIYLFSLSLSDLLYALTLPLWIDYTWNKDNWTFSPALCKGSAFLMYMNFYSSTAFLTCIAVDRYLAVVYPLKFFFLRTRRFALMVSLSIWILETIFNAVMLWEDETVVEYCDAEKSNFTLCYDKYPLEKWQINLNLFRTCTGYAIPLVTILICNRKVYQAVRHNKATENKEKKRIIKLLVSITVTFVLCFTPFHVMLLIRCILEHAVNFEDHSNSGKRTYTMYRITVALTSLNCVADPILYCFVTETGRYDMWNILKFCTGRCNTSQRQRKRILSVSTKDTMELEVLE
Human GPR65 Cyclic Adenosine Monophosphate (cAMP) Homogeneous Time Resolved Fluorescence (HTRF) Antagonist Assay Procedure
IC50 data was obtained by the following procedure:
1321N1 human astrocytoma cells stably expressing human recombinant GPR65 (1321N1-hrGPR65 cells, EuroscreenFast) were cultured according to the vendor's instructions.
Compounds were tested for their ability to antagonise GPR65, through measuring the concentration of cytoplasmic cAMP following treatment of the cells at a pH of 7.2 to activate GPR65 signalling and addition of the compound to be tested. The extent to which the expected rise in cAMP concentration upon GPR65 activation was suppressed by the added compound is indicative of its potency. The assay was carried out according to EuroscreenFast assay methodology as follows.
On the day of the assay, test compounds were added to 384-well, low volume, white microtiter plates by acoustic dispensing. KRH buffer (5 mM KCl, 1.25 mM MgSO4, 124 mM NaCl, 25 mM HEPES, 13.3 mM Glucose, 1.25 mM KH2PO4 and 1.45 mM CaCl2) was adjusted to pH 6.5, pH 7.6 and pH 8.4 by adding NaOH. 1321N1-hGPR65 cells were rapidly thawed and diluted in KRH, pH 7.6 prior to centrifugation at 300×g for 5 min and resuspension in assay buffer (KRH, pH 7.6, supplemented with 1 mM 3-isobutyl-1-methylxanthine (IBMX) and 200 μM ethylenediaminetetraacetic acid (EDTA)). Cells were added to assay plates at a density of 2,000 cells per well in a volume of 5 μl. Assay plates were briefly centrifuged at 100×g and then incubated at room temperature for 30 min. Cells were stimulated by the addition of 5 μL KRH, pH 6.5, to achieve an assay pH of 7.2, while control wells received 5 μl KRH, pH 8.4 to achieve an assay pH of 7.9. Assay plates were briefly centrifuged at 100×g and then incubated at room temperature for 30 min.
Accumulation of cAMP was detected by cAMP HTRF kit (Cisbio). d2-labeled cAMP and cryptate-labeled anti-cAMP antibody in Lysis and Detection Buffer (Cisbio) were added to assay plates, and the plates were incubated at room temperature for 1 h. HTRF measurements were performed using a Pherastar FSX instrument. Acceptor and donor emission signals were measured at 665 nm and 620 nm, respectively, and HTRF ratios were calculated as signal665 nm/signal620nm×10^4. Data were normalised to high and low control values and fitted with 4-parameter logistic regression to determine hGPR65 IC50 values for the test compounds, which are shown in Table 1.
Consider `O=C(Nc1cc2cn(C(F)F)nc2cn1)N1[C@H]2CC[C@@H]1c1ccnc(F)c1C2` [Compound 27, (5R,8S)-N-(2-(difluoromethyl)-2H-pyrazolo[3,4-c]pyridin-5-yl)-1-fluoro-6,7,8,9-tetrahydro-5H-5,8-epiminocyclohepta[c]pyridine-10-carboxamide], for which the IC50 was more than 5000 nM.

As to `O=C(Nc1cnc(-c2ccccc2)s1)N1[C@H]2CC[C@@H]1c1ccnc(F)c1C2` [Compound 29, (5R,8S)-1-Fluoro-N-(2-phenylthiazol-5-yl)-6,7,8,9-tetrahydro-5H-5,8-epiminocyclohepta[c]pyridine-10-carboxamide], the IC50 was less than 500 nM. To `O=C(Nc1nc(Cl)c(Cl)s1)N1[C@H]2CC[C@@H]1c1ccnc(F)c1C2` [Compound 30, (5R,8S)-N-(4,5-Dichlorothiazol-2-yl)-1-fluoro-6,7,8,9-tetrahydro-5H-5,8-epiminocyclohepta[c]pyridine-10-carboxamide] belongs less than 500 nM; to `O=C(Nc1nnc(C2CC2)s1)N1[C@H]2CC[C@@H]1c1ccnc(F)c1C2` [Compound 31, (5R,8S)-N-(5-Cyclopropyl-1,3,4-thiadiazol-2-yl)-1-fluoro-6,7,8,9-tetrahydro-5H-5,8-epiminocyclohepta[c]pyridine-10-carboxamide], 500 to 5000 nM. To `O=C(Nc1nnc(C2CCOCC2)s1)N1[C@H]2CC[C@@H]1c1ccnc(F)c1C2` [Compound 32, (5R,8S)-1-Fluoro-N-(5-(tetrahydro-2H-pyran-4-yl)-1,3,4-thiadiazol-2-yl)-6,7,8,9-tetrahydro-5H-5,8-epiminocyclohepta[c]pyridine-10-carboxamide] belongs more than 5000 nM; to `O=C(Nc1nnc(-c2ccccc2)s1)N1[C@H]2CC[C@@H]1c1ccnc(F)c1C2` [Compound 33, (5R,8S)-1-Fluoro-N-(5-phenyl-1,3,4-thiadiazol-2-yl)-6,7,8,9-tetrahydro-5H-5,8-epiminocyclohepta[c]pyridine-10-carboxamide], less than 500 nM; to `Cn1nc(NC(=O)N2[C@H]3CC[C@@H]2c2ccnc(F)c2C3)c2ccccc21` [Compound 34, (5R,8S)-1-Fluoro-N-(1-methyl-1H-indazol-3-yl)-6,7,8,9-tetrahydro-5H-5,8-epiminocyclohepta[c]pyridine-10-carboxamide], more than 5000 nM. To `O=C(Nc1ccc2nonc2c1)N1[C@H]2CC[C@@H]1c1ccnc(F)c1C2` [Compound 35, (5R,8S)-N-(Benzo[c][1,2,5]oxadiazol-5-yl)-1-fluoro-6,7,8,9-tetrahydro-5H-5,8-epiminocyclohepta[c]pyridine-10-carboxamide] belongs 500 to 5000 nM. With `O=C(Nc1cc(C(F)(F)F)on1)N1[C@H]2CC[C@@H]1c1ccnc(F)c1C2` [Compound 36, (5R,8S)-1-Fluoro-N-(5-(trifluoromethyl)isoxazol-3-yl)-6,7,8,9-tetrahydro-5H-5,8-epiminocyclohepta[c]pyridine-10-carboxamide], the IC50 was less than 500 nM. As for `N#Cc1ccc(NC(=O)N2[C@H]3CC[C@@H]2c2ccnc(F)c2C3)nc1C(F)(F)F` [Compound 37, (5R,8S)-N-(5-Cyano-6-(trifluoromethyl)pyridin-2-yl)-1-fluoro-6,7,8,9-tetrahydro-5H-5,8-epiminocyclohepta[c]pyridine-10-carboxamide], the IC50 was 500 to 5000 nM.

Consider `N#Cc1cnc(NC(=O)N2[C@H]3CC[C@@H]2c2ccnc(F)c2C3)c(C(F)(F)F)c1` [Compound 38, (5R,8S)-N-(5-Cyano-3-(trifluoromethyl)pyridin-2-yl)-1-fluoro-6,7,8,9-tetrahydro-5H-5,8-epiminocyclohepta[c]pyridine-10-carboxamide], for which the IC50 was less than 500 nM.

Take `O=C(Nc1ccc(OC(F)F)cn1)N1[C@H]2CC[C@@H]1c1ccnc(F)c1C2` [Compound 39, (5R,8S)-N-(5-(Difluoromethoxy)pyridin-2-yl)-1-fluoro-6,7,8,9-tetrahydro-5H-5,8-epiminocyclohepta[c]pyridine-10-carboxamide]: the IC50 was 500 to 5000 nM.

For the compound `O=C(Nc1ccc(OC(F)(F)F)cn1)N1[C@H]2CC[C@@H]1c1ccnc(F)c1C2` [Compound 40, (5R,8S)-1-Fluoro-N-(5-(trifluoromethoxy)pyridin-2-yl)-6,7,8,9-tetrahydro-5H-5,8-epiminocyclohepta[c]pyridine-10-carboxamide], the IC50 was less than 500 nM.

Regarding `N#Cc1ccc(NC(=O)N2[C@H]3CC[C@@H]2c2ccnc(F)c2C3)nc1` [Compound 41, (5R,8S)-N-(5-Cyanopyridin-2-yl)-1-fluoro-6,7,8,9-tetrahydro-5H-5,8-epiminocyclohepta[c]pyridine-10-carboxamide], the IC50 fell in the range of 500 to 5000 nM.

In the case of `O=C(Nc1nc(-c2ccccc2)no1)N1[C@H]2CC[C@@H]1c1ccnc(F)c1C2` [Compound 42, (5R,8S)-1-Fluoro-N-(3-phenyl-1,2,4-oxadiazol-5-yl)-6,7,8,9-tetrahydro-5H-5,8-epiminocyclohepta[c]pyridine-10-carboxamide], the IC50 fell in the range of 500 to 5000 nM. To `Cc1nnc(NC(=O)N2[C@H]3CC[C@@H]2c2ccnc(F)c2C3)s1` [Compound 43, (5R,8S)-1-Fluoro-N-(5-methyl-1,3,4-thiadiazol-2-yl)-6,7,8,9-tetrahydro-5H-5,8-epiminocyclohepta[c]pyridine-10-carboxamide] belongs more than 5000 nM; to `O=C(Nc1ccc2nc(C(F)(F)F)ccc2c1)N1[C@H]2CC[C@@H]1c1ccnc(F)c1C2` [Compound 44, (5R,8S)-1-Fluoro-N-(2-(trifluoromethyl)quinolin-6-yl)-6,7,8,9-tetrahydro-5H-5,8-epiminocyclohepta[c]pyridine-10-carboxamide], less than 500 nM; to `O=C(Nc1nnc(-c2ccccc2)o1)N1[C@H]2CC[C@@H]1c1ccnc(F)c1C2` [Compound 45, (5R,8S)-1-Fluoro-N-(5-phenyl-1,3,4-oxadiazol-2-yl)-6,7,8,9-tetrahydro-5H-5,8-epiminocyclohepta[c]pyridine-10-carboxamide], 500 to 5000 nM. To `N#Cc1cnc(NC(=O)N2[C@H]3CC[C@@H]2c2ccnc(F)c2C3)cc1Cl` [Compound 46, (5R,8S)-N-(4-Chloro-5-cyanopyridin-2-yl)-1-fluoro-6,7,8,9-tetrahydro-5H-5,8-epiminocyclohepta[c]pyridine-10-carboxamide] belongs less than 500 nM. To `N#Cc1ccc(NC(=O)N2[C@H]3CC[C@@H]2c2ccnc(F)c2C3)nc1Cl` [Compound 47, (5R,8S)-N-(6-Chloro-5-cyanopyridin-2-yl)-1-fluoro-6,7,8,9-tetrahydro-5H-5,8-epiminocyclohepta[c]pyridine-10-carboxamide] belongs 500 to 5000 nM; to `Cn1nc(NC(=O)N2[C@H]3CC[C@@H]2c2ccnc(F)c2C3)cc1C(F)(F)F` [Compound 48, (5R,8S)-1-fluoro-N-(1-methyl-5-(trifluoromethyl)-1H-pyrazol-3-yl)-6,7,8,9-tetrahydro-5H-5,8-epiminocyclohepta[c]pyridine-10-carboxamide], more than 5000 nM.

For `O=C(Nc1cc(C(F)(F)F)on1)N1[C@H]2CC[C@@H]1c1c[nH]c(=O)cc1C2` [Compound 49, (6S,9R)-3-oxo-N-(5-(trifluoromethyl)isoxazol-3-yl)-3,5,6,7,8,9-hexahydro-2H-6,9-epiminocyclohepta[c]pyridine-10-carboxamide], the 50% inhibitory concentration (IC50) is less than 500 nM. To `O=C(Nc1cc(C(F)(F)F)no1)N1[C@H]2CC[C@@H]1c1ccnc(F)c1C2` [Compound 50, (5R,8S)-1-fluoro-N-(3-(trifluoromethyl)isoxazol-5-yl)-6,7,8,9-tetrahydro-5H-5,8-epiminocyclohepta[c]pyridine-10-carboxamide] belongs less than 500 nM; to `COC(=O)c1cc(NC(=O)N2[C@H]3CC[C@@H]2c2ccnc(F)c2C3)no1` [Compound 51, methyl-3-((5R,8S)-1-fluoro-6,7,8,9-tetrahydro-5H-5,8-epiminocyclohepta[c]pyridine-10-carboxamido)isoxazole-5-carboxylate], 500 to 5000 nM; to `N#Cc1cc(NC(=O)N2[C@H]3CC[C@@H]2c2ccnc(F)c2C3)no1` [Compound 52, (5R,8S)-N-(5-cyanoisoxazol-3-yl)-1-fluoro-6,7,8,9-tetrahydro-5H-5,8-epiminocyclohepta[c]pyridine-10-carboxamide], less than 500 nM.
